# Measurements from patent US20260116867A1, “PROTEOLYSIS TARGETING CHIMERAS FOR HUMAN PREGNANE X RECEPTOR AND FOR DEGRADATION OF GSPT1” (ST. JUDE CHILDREN'S RESEARCH HOSPITAL, priority 2022, published 2026).
# “Also recorded” adds a separate entry of the source.
# Columns and labels:
# PXR RNA = PXR RNA level in SNU—C4 3xFLAG-PXR KI cells; format: cell-based, human
# PXR [1] = target: T1, PXR (Homo sapiens, UniProt O75469); test: cell-based hPXR inverse agonistic assay
# T1 sequence (O75469 1-434): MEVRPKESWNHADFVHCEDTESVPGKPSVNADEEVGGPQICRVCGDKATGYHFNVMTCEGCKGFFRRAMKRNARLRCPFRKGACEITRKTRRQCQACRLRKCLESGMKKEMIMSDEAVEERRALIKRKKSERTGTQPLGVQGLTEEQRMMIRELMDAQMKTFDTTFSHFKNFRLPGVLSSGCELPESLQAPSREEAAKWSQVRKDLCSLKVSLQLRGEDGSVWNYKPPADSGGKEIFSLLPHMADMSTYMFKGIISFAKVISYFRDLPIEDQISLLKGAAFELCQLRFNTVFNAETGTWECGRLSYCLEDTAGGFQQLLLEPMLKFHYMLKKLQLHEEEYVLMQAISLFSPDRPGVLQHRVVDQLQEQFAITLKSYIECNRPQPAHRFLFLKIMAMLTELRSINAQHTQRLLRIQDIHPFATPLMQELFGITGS
# HiBiT-FKBP12^F36V-PXR = target: T2, HiBiT-FKBP12^F36V-PXR (Homo sapiens, UniProt O75469+P62942, F37V); test: HiBiT assay for degradation of overexpressed protein in HepG2 cells; format: cell-based; details: HepG2, HiBiT-FKBP12^F36V-PXR, 24 h, FIG. 4A
# T2 construct: expressed in transfected cells; host or cells: HepG2 cells (transient, Lipofectamine 3000)
# Description: HepG2 cells (5×10^6 cells/dish) were plated in tissue culture-treated 10 cm dishes in 10 mL EMEM with 10% FBS. The next day, cells were transfected with 5 μg pcDNA3-HiBiT-FKBP^F36V-2xHA-PXR and either 5 μg pcDNA3 vector or 5 μg pcDNA3-HA-CRBN using Lipofectamine 3000 (Thermo Fisher Scientific). After 24 h, cells were trypsinized, resuspended in assay media, and plated in white tissue culture-treated 384-well plates (1.5×10^4 cells/well in 25 μL medium). […] The plates were incubated for 24 h, and the Nano-Glo HiBiT Lytic Detection System (Promega) and an EnVision microplate reader were used to measure HiBiT signal. Results are reported as fold change relative to DMSO control cells.
# To establish a method for discovery of PXR degraders in the absence of a known PXR-degrading control, the degradation tag (dTAG) system was used. With this method, a protein of interest (PXR) is fused to a cytosolic prolyl isomerase, FKBP12, with Phe36 mutated to Val (FKBP12^F36V) (FIG. 2A). A PROTAC molecule, dTAG-13 (FIG. 2B), is then used to induce degradation of the fusion protein through recruitment of the CUL4-RBX1-DDB1-CRBN (CRL4^CRBN) E3 ubiquitin ligase, without affecting the cellular FKBP12 protein. An HA tag was added for western blot detection, and a HiBiT tag was fused to the N-terminus to allow high-throughput plate-based quantification of HiBiT-FKBP12^F36V-PXR protein levels (FIG. 2A). […] This was also observed when the HA tag was detected by western blot (FIG. 2D). The HiBiT detection was more sensitive to protein level changes than western blot, and, importantly, overexpression of CRBN was required to achieve dTAG-13-mediated degradation of the overexpressed HiBiT-FKBP12^F36V-PXR protein.
# PXR [2] = target: T1, PXR; test: Western blot of endogenous 3xFLAG-PXR protein in SNU—C4 3xFLAG-PXR KI cells; format: cell-based; set-up: To assess SJPYT-195 activity against endogenous PXR, CRISPR-Cas9 was used; endogenous in cells
# Description: (§1) The following day, DMSO or compounds were added to result in 0.5% DMSO and the indicated compound concentrations, and cells were incubated for the indicated time points. Cells were lysed and subjected to western blotting as above using antibodies against FLAG (Sigma-Aldrich, cat. #F3165, 1:2,000 dilution), GSPT1 (Abcam, cat. #ab126090, 1:4,000 dilution), and R-Actin (Cell Signaling Technology, cat. #4967, 1:2,000 dilution).
# PXR [3] = target: T1, PXR; test: cell-based hPXR antagonistic assay
# [4] = test system: SNU—C4 3xFLAG-PXR KI cell lines stably expressing HA-tagged GSPT1^G575N; test: Cytotoxicity assay in cells overexpressing degradation-resistant GSPT1 mutant; format: cell-based, human; details: FIG. 7B-C
# Description: Complete information for all plasmids is included in Table 1 below. […] Lentiviruses for pCDH-GSPT1 or pCDH-GSPT1^G575N were generated in 293T cells using psPAX2 and pMD2.G packaging vectors. The packaging vectors were gifts from Dr. Didier Trono (Addgene plasmid #12259 and 12260).
# (§2) The indicated cells (2.5×10^3/well in 40 μL RPMI with 10% FBS) were plated in the 384-well plates, resulting in 0.5% DMSO and the indicated concentrations of chemicals. After 72 h compound treatment, the CellTiter-Glo Luminescent Cell Viability Assay (Promega) and an EnVision microplate reader were used to assess cytotoxicity. Wells containing DMSO alone or 10 μM staurosporine served as negative and positive controls, respectively. The percent cell viability for each well was calculated using equation 1: […]
# [5] = Cytotoxicity assay (CellTiter-Glo, 72 h); format: cell-based, human; details: human, SNU-C4 3xFLAG-PXR KI cells; read-out: half maximal cytotoxic concentration (CC50)
# Description: as §2
# [6] = test system: SNU—C4 3xFLAG-PXR KI cells; test: Cytotoxicity assay (CellTiter-Glo, 72 h); format: cell-based, human; details: SNU—C4 3xFLAG-PXR KI cells
# Description: as §2
# GSPT1 = target: T3, GSPT1 (Homo sapiens, UniProt P15170+Q96SW2); test: Western blot of GSPT1 protein in SNU—C4 3xFLAG-PXR KI cells; format: cell-based
# T3 construct: endogenous in cells
# Description: as §1
# T3 sequence (P15170 1-637 isoform P15170-3): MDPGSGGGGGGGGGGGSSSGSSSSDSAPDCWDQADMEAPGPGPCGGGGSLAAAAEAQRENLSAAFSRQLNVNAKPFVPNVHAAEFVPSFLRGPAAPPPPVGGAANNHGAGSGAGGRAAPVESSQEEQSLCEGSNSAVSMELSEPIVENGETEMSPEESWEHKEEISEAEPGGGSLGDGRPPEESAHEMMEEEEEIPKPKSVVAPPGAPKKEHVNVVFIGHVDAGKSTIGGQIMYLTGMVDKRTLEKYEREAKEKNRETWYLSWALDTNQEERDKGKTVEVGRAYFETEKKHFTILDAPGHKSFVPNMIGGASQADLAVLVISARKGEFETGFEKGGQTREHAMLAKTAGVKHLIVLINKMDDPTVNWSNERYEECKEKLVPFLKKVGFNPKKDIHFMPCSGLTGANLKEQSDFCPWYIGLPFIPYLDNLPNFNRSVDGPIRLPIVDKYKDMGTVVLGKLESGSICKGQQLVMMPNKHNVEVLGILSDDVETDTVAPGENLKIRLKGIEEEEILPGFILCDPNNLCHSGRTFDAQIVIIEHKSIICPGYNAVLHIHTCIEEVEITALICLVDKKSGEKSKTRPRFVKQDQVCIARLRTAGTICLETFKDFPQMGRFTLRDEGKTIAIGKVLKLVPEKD
# T3 sequence (Q96SW2 whole entry): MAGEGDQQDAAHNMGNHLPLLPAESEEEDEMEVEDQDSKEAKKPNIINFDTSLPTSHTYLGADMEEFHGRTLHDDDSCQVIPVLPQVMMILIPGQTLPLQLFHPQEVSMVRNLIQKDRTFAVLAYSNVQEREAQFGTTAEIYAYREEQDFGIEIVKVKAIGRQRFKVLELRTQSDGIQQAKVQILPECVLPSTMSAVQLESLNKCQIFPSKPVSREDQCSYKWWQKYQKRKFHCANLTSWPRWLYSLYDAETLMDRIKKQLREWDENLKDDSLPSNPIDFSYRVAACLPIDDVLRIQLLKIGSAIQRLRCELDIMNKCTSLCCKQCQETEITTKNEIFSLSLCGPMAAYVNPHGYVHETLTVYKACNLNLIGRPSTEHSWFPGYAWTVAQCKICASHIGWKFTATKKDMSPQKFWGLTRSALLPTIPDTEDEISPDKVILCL
# T3 sequence (Q16531 whole entry partner): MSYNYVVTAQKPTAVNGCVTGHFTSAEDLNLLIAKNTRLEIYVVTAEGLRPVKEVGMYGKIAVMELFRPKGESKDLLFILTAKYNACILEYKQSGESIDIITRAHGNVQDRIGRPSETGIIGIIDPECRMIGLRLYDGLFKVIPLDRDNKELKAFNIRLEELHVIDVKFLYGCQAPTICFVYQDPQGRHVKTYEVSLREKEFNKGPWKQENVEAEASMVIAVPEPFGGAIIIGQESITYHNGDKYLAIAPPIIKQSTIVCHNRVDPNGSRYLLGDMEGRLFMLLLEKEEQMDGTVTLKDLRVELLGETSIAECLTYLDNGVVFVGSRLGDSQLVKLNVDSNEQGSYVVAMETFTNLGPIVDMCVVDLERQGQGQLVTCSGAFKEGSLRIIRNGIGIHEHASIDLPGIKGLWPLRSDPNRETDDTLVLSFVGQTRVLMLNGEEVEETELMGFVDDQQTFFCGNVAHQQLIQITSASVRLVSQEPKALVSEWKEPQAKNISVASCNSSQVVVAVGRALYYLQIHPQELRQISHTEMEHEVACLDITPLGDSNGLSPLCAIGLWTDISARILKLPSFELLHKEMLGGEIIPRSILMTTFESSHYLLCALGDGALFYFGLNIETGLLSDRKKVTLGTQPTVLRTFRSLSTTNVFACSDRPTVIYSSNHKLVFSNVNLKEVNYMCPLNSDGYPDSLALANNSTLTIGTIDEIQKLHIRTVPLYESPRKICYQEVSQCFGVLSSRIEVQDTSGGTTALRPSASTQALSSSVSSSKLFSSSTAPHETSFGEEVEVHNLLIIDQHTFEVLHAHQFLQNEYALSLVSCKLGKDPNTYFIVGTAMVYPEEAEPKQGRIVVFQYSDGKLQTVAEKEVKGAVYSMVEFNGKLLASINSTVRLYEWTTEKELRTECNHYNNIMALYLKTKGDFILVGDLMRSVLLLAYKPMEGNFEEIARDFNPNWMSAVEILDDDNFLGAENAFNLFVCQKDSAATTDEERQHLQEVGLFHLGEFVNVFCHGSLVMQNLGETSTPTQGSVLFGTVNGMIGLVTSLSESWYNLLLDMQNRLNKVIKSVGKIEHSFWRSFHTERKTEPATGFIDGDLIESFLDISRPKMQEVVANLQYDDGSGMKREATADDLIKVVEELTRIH
# T2 sequence (P62942+O75469 fused P62942:F37V): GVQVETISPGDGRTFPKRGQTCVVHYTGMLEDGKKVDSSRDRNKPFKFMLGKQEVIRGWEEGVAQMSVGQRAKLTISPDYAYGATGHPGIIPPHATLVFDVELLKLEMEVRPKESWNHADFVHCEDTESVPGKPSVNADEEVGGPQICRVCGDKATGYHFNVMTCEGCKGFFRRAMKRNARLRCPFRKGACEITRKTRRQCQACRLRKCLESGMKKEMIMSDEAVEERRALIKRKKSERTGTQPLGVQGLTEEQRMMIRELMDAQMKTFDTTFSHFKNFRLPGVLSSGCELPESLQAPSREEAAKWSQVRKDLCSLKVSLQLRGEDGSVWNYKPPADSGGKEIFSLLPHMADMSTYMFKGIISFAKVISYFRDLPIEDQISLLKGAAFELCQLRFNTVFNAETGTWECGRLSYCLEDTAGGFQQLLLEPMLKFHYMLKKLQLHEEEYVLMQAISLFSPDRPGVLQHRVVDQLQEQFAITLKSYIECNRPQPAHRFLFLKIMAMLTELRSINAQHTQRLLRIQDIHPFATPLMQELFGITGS
# T2 sequence (Q96SW2 whole entry partner): as the sequence (Q96SW2 whole entry) above
smiles,measurement,setting,value
"COc1ccc(OC)c(-n2nnc(C(=O)Nc3cc(Oc4cccc5c4C(=O)N(C4CCC(=O)NC4=O)C5=O)cc(C(C)(C)C)c3)c2C)c1 (stereo not drawn) [Compound M4, N-(3-(tert-butyl)-5-((2-(2,6-dioxopiperidin-3-yl)-1,3-dioxoisoindolin-4-yl)oxy)phenyl)-1-(2,5-dimethoxyphenyl)-5-methyl-1H-1,2,3-triazole-4-carboxamide]",reduction of PXR RNA,"PXR RNA; 5 μM, 12 h",negligible reduction
same,PXR RNA level,"PXR RNA; time-course, FIG. 5C",drastically reduced PXR RNA level
same,inhibition at 10 µM,PXR [1]; read-out: Inverse agonist (% inhibition at 10 μM),133%
same,IC50,PXR [1]; read-out: Inverse agonist (IC50/μM),0.18 ± 0.055 µM
same,HiBiT signal (screen of PXR ligand-CRBN ligand compounds),HiBiT-FKBP12^F36V-PXR,reduced HiBiT signal
same,reduction of PXR protein,"PXR [2]; 5 μM, 12 h",~50%
same,maximum degradation efficacy (DNax) of endogenous PXR protein,"PXR [2]; SNU—C4 3xFLAG-PXR KI cells, FIG. 4B",85% ±1
same,DC50,"PXR [2]; SNU—C4 3xFLAG-PXR KI cells, FIG. 4B, read-out: half maximal degradation concentration (DC50) of endogenous PXR protein",310 ± 130 nM
same,kinetics of PXR protein decrease,"PXR [2]; time-course, FIG. 5A-B",quite slow
same,PXR protein level (in words),"PXR [2]; western blot, SNU—C4 3xFLAG-PXR KI cells",reduced PXR to a greater extent than CC-885
same,inhibition at 10 µM,PXR [3]; read-out: Antagonist (% inhibition at 10 μM),96%
same,IC50,PXR [3]; read-out: Antagonist (IC50/μM),0.94 ± 0.2 µM
same,cytotoxicity in cells overexpressing GSPT1^G575N,[4],partially resistant
same,CC50 at 72 h,[5],440 ± 80 nM
same,fold difference in CC50 values (CC-885 vs SJPYT-195),[6],133 fold
same,GSPT1 Loss at 10 μM (% ± SD),"GSPT1; 10 μM compound, calculated from western blots FIG. 9A",100 ± 0.1%
same,"activity on GSPT1, fold lower than that of CC-885","GSPT1; western blot, FIG. 6D-E",~100 fold
same,GSPT1 degradation (in words),"GSPT1; western blot, SNU—C4 3xFLAG-PXR KI cells, listed as SJPYT-195",deplete GSPT1 at concentrations much lower than those required to reduce PXR; also recorded: most potent inducer of GSPT1 degradation
